{"source": "patent EP1129352B1", "about": "(priority 1998, dated 2000)", "key": {"protein phosphatase 2A [1]": {"biological_target": "T1, protein phosphatase 2A (Homo sapiens, UniProt P67775)", "T1 construct": "purchased Upstate Biotechnology (Lake Placid, NY)", "T1 sequence (P67775 whole entry)": "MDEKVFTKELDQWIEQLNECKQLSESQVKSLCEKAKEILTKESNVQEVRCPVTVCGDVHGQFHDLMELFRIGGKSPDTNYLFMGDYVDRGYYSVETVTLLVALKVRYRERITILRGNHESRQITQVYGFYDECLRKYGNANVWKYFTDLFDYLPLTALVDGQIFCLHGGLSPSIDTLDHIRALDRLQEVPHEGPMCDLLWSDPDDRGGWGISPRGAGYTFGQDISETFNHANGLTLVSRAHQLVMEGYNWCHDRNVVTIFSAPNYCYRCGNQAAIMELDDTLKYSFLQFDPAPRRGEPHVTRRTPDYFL", "test": "biochemical", "format": "binding"}, "protein phosphatase 2A [2]": {"biological_target": "T1, protein phosphatase 2A", "test": "biochemical", "format": "biochemical"}, "[3]": {"details": "0.4%, preincubated 30 minutes on ice, relative to control, ± SEM"}, "[4]": {"details": "read-out: % activity Competitive binding assay"}, "[5]": {"details": "read-out: % activity Protein phosphatase assay"}}, "note": "Like-named read-outs stand apart in the source and are kept apart here. Numbered stars: 1 amine (or outer) side, 2 acyl side, 3 side chain; on linkers, the order of the positions; unused ones are H or OH. Bridge positions count the residues as written; N and C are the ends. Square brackets hold non-standard residues; d marks the D form. Peptide text beside a SMILES is read from it. Adda = CO[C@@H](Cc1ccccc1)[C@@H](C)/C=C(C)/C=C/[C@H](N[*:1])[C@H](C)C(=O)[*:2]; dAsp(3S-Me) = C[C@H](C(=O)[*:3])[C@@H](N[*:1])C(=O)[*:2]; d(γGlu) = O=C(O)[C@@H](CCC(=O)[*:2])N[*:1]; NMeDha = C=C(NC)C(=O)O"}
{"compound": "COC[C@@H]([C@H](O)[C@H](O)C(=O)NCC[C@H](C)c1nc(/C=C/C[C@@H]2O[C@]3(C[C@@H](O)[C@@H]2C)O[C@H]([C@H](C[C@H](O)[C@H](C)[C@H](O)[C@H](C)/C=C(C)/C(C)=C/C=C/C(C)=C\\C#N)OC)[C@H](OP(=O)(O)O)C3(C)C)co1)N(C)C", "note": "[calyculin A, reference compound]", "values": [{"measurement": "IC50", "setting": "protein phosphatase 2A [1]; read-out: IC50", "value": 0.251, "unit": "nM"}]}
{"compound": "microcystin-YR [reference compound]", "values": [{"measurement": "IC50", "setting": "protein phosphatase 2A [1]; read-out: IC50", "value": 0.075, "unit": "nM"}]}
{"compound": "C/C=C1/C(=O)N[C@@H](C(=O)O)[C@H](C)C(=O)N[C@@H](CCCNC(=N)N)C(=O)N[C@@H](/C=C/C(C)=C/[C@H](C)[C@H](Cc2ccccc2)OC)[C@H](C)C(=O)N[C@@H](C(=O)O)CCC(=O)N1C", "note": "[nodularin, reference compound]", "values": [{"measurement": "IC50", "setting": "protein phosphatase 2A [1]; read-out: IC50", "value": 0.015, "unit": "nM"}]}
{"compound": "[Cl-].[Na+]", "note": "[NaCl]", "values": [{"measurement": "% activity Competitive binding assay", "setting": "protein phosphatase 2A [1]", "value": "41.2 ± 0.7", "unit": "%"}, {"measurement": "% activity Protein phosphatase assay", "setting": "protein phosphatase 2A [2]", "value": "44.4 ± 1.6", "unit": "%"}]}
{"compound": "C=C1[C@@H](O)[C@@H]2O[C@]3(CC[C@H](/C=C/[C@@H](C)[C@@H]4CC(C)=C[C@@]5(O[C@H](C[C@@](C)(O)C(=O)O)CC[C@H]5O)O4)O3)CC[C@H]2O[C@@H]1[C@@H](O)C[C@H](C)[C@H]1O[C@@]2(CCCCO2)CC[C@H]1C", "note": "[okadaic acid, reference compound]", "values": [{"measurement": "IC50", "setting": "protein phosphatase 2A [1]", "value": 0.1, "unit": "nM"}]}
{"compound": "[F-].[Na+]", "note": "[NaF]", "values": [{"measurement": "% activity Competitive binding assay", "setting": "protein phosphatase 2A [1]; 5 mM", "value": "102.0 ± 3.3", "unit": "%"}, {"measurement": "% activity Competitive binding assay", "setting": "protein phosphatase 2A [1]; 50 mM", "value": "101.5 ± 1.9", "unit": "%"}, {"measurement": "% activity Protein phosphatase assay", "setting": "protein phosphatase 2A [2]; 5 mM, preincubated 30 minutes on ice, relative to control, ± SEM", "value": "62.6 ± 0.4", "unit": "%"}, {"measurement": "% activity Protein phosphatase assay", "setting": "protein phosphatase 2A [2]; 50 mM, preincubated 30 minutes on ice, relative to control, ± SEM", "value": "7.7 ± 1.4", "unit": "%"}]}
{"compound": "CC#N", "note": "[acetonitrile]", "values": [{"measurement": "% activity Competitive binding assay", "setting": "protein phosphatase 2A [1]", "value": "90.4 ± 5.4", "unit": "%"}, {"measurement": "% activity Protein phosphatase assay", "setting": "protein phosphatase 2A [2]", "value": "88.2 ± 2.7", "unit": "%"}]}
{"compound": "CO[C@H]([C@H](O)CC(=O)[C@@H](C)[C@@H](O)CC[C@@H](C)[C@@H]1O[C@]2(CC[C@@H](C)[C@H](CC[C@H](C)C(C)=O)O2)CC[C@@H]1C)[C@H](OC(=O)C[C@@H](O)C1=C(C)C(=O)OC1=O)C(C)C", "note": "[tautomycin, reference compound]", "values": [{"measurement": "IC50", "setting": "protein phosphatase 2A [1]", "value": 0.562, "unit": "nM"}]}
{"compound": "C[S+](C)[O-]", "note": "[DMSO, dimethyl sulfoxide]", "values": [{"measurement": "% activity Competitive binding assay", "setting": "protein phosphatase 2A [1]", "value": "72.8 ± 2.3", "unit": "%"}, {"measurement": "% activity Protein phosphatase assay", "setting": "protein phosphatase 2A [2]", "value": "97.9 ± 3.3", "unit": "%"}]}
{"compound": "Triton X-100", "values": [{"measurement": "% activity Competitive binding assay", "setting": "protein phosphatase 2A [1]; 0.4%", "value": "122.3 ± 1.0", "unit": "%"}, {"measurement": "% activity Protein phosphatase assay", "setting": "protein phosphatase 2A [2]; [3]", "value": "60.2 ± 5.7", "unit": "%"}]}
{"compound": "Nc1ncnc2c1ncn2[C@@H]1O[C@H](COP(=O)(O)OP(=O)(O)OP(=O)(O)O)[C@@H](O)[C@H]1O", "note": "[ATP]", "values": [{"measurement": "activity at 500 µM", "setting": "protein phosphatase 2A [1]; [4]", "value": "102 ± 1.7", "unit": "%"}, {"measurement": "activity at 2000 µM", "setting": "protein phosphatase 2A [1]; [4]", "value": "103.3 ± 0.2", "unit": "%"}, {"measurement": "activity at 500 µM", "setting": "protein phosphatase 2A [2]; [5]", "value": "29.8 ± 5.6", "unit": "%"}, {"measurement": "activity at 2000 µM", "setting": "protein phosphatase 2A [2]; [5]", "value": "9.8 ± 3.4", "unit": "%"}]}
{"compound": "C=C1C(=O)N[C@H](C)C(=O)N[C@@H](CC(C)C)C(=O)N[C@@H](C(=O)O)[C@H](C)C(=O)N[C@@H](CCCNC(=N)N)C(=O)N[C@@H](/C=C/C(C)=C/[C@H](C)[C@H](Cc2ccccc2)OC)[C@H](C)C(=O)N[C@@H](C(=O)O)CCC(=O)N1C", "note": "[microcystin-LR, reference compound] (R[Adda][d(γGlu)][NMeDha][dA]L[dAsp(3S-Me)]-OH; lactam N-7)", "values": [{"measurement": "IC50", "setting": "protein phosphatase 2A [1]; read-out: IC50", "value": 0.017, "unit": "nM"}]}
{"compound": "O=P([O-])([O-])OP(=O)([O-])[O-].[Na+].[Na+].[Na+].[Na+]", "note": "[NaPPi]", "values": [{"measurement": "% activity Competitive binding assay", "setting": "protein phosphatase 2A [1]; 0.05 mM", "value": "101.4 ± 4.1", "unit": "%"}, {"measurement": "% activity Protein phosphatase assay", "setting": "protein phosphatase 2A [2]; 0.05 mM, preincubated 30 minutes on ice, relative to control, ± SEM", "value": "14.2 ± 1.2", "unit": "%"}]}
{"compound": "CO", "note": "[MeOH]", "values": [{"measurement": "% activity Competitive binding assay", "setting": "protein phosphatase 2A [1]; 10%", "value": "73.9 ± 0.5", "unit": "%"}, {"measurement": "% activity Protein phosphatase assay", "setting": "protein phosphatase 2A [2]; 10%, preincubated 30 minutes on ice, relative to control, ± SEM", "value": "87.4 ± 4.1", "unit": "%"}]}
{"compound": "C[C@H](CCC(=O)NCCC[N+](C)(C)CCCS(=O)(=O)[O-])[C@H]1CC[C@H]2[C@@H]3[C@H](O)C[C@@H]4C[C@H](O)CC[C@]4(C)[C@H]3C[C@H](O)[C@]12C", "note": "[CHAPS]", "values": [{"measurement": "% activity Competitive binding assay", "setting": "protein phosphatase 2A [1]", "value": "90.9 ± 9.9", "unit": "%"}, {"measurement": "% activity Protein phosphatase assay", "setting": "protein phosphatase 2A [2]", "value": "138.0 ± 34.4", "unit": "%"}]}
{"compound": "Nonidet P-40", "values": [{"measurement": "% activity Competitive binding assay", "setting": "protein phosphatase 2A [1]; 0.4%", "value": "106.0 ± 2.0", "unit": "%"}, {"measurement": "% activity Protein phosphatase assay", "setting": "protein phosphatase 2A [2]; [3]", "value": "61.1 ± 1.3", "unit": "%"}]}
